Entries after “also recorded” stand apart in the source; their conditions may differ.
Assays:
[1] = tested on: diet-induced obesity in C57BL/6 mice; test: Mouse diet-induced obesity: type II diabetes, hyperlipidemia and metabolic syndrome; format: in vivo; conditions: 10 mg/kg/day, 6 weeks; for total cholesterol / triglycerides / blood glucose: vs vehicle; for blood glucose: two-tailed T test
Method: To evaluate treatment with DHCQ and HCQ on a mouse model of diet-induced type II diabetes, hyperlipidemia and metabolic syndrome, C57BL/6 mice (8 per group) were fed a high-fat “western-style” diet (60% caloric content from fat; Taconic). In an analogous fashion to that in Example 6, two weeks following initiation of the high-fat diet groups of mice were initiated on treatment with vehicle control, HCQ (10 mg/kg/day) or the HCQ metabolites DHCQ (10 mg/kg/day), DCQ (10 mg/kg/day), or BDCQ (10 mg/kg/day). After 6 weeks of treatment, blood was collected for analysis of glucose, triglyceride, and cholesterol levels.

retinal toxicity [2] = test: Estimated retinal toxicity of long-term DHCQ therapy in humans; format: in vivo, human
Source text: The estimated rate of retinal toxicity for long-term treatment with DHCQ is less than 50% of the currently reported rate for HCQ when used at a similar effective cumulative dose and over a similar time period. More specifically, as compared to the rates of retinal toxicity described by Marmor et al. for treatment with HCQ (Ophthalmology. 2011 February; 118(2):415-22), given a similar level of therapeutic activity and time period of dosing for both HCQ and DHCQ, DHCQ is estimated to provide less than 50% of retinal toxicity as compared to that with HCQ dosing. Thus, in patient populations analogous to that described by the […] and Marmor et al (Ophthalmology. 2011 February; 118(2):415-22) where the retinal toxicity rate approach 1% after 5 years, DHCQ therapy is estimated to reduce the retinal toxicity to less that 0.5% of treated individuals. Further, given conventional assumptions that retinal screening is justified as rates of toxicity approach 1%, the reduced cumulative rates of retinal toxicity associated with DHCQ therapy will substantially reduce the need for retinal toxicity screening to a single screening at 5 and 10 years, or entirely negate the need for screening.

[3] = tested on: experimental autoimmune encephalomyelitis (EAE) in SJL mice; test: EAE mouse model for MS, prevention (treatment from immunization); format: in vivo; conditions: for EAE clinical score (development and severity): 100 mg/kg/day oral gavage from immunization, 50 mg/kg/day from day 8, vs vehicle or BDCQ, P<0.05
Source text: Experimental autoimmune encephalomyelitis (EAE), a mouse model for MS, was induced in SJL mice (n=10 per group) by immunization with proteolipid protein peptide 139-151 (PLP 139-151) in CFA. […] Starting on day 8, mice were scored daily for the severity of EAE.

[4] = tested on: established EAE in SJL mice; test: EAE mouse model for MS, treatment of established disease; format: in vivo; conditions: for EAE clinical score (severity of established EAE): 100 mg/kg/day oral gavage from day 14, 50 mg/kg/day 8 days later; for EAE clinical score (severity of established EAE) / Inflammatory Foci Score in the parenchyma / Inflammatory Foci Score, total score / Inflammatory Foci Score in the meninges: vs vehicle; for Inflammatory Foci Score in the parenchyma / Inflammatory Foci Score, total score / Inflammatory Foci Score in the meninges: brain histology at termination; for Inflammatory Foci Score in the meninges: P<0.05 two-tailed T test
Source text: Experimental autoimmune encephalomyelitis (EAE), a mouse model for MS, was induced in SJL mice (n=10 per group) by immunization with proteolipid protein peptide 139-151 (PLP 139-151) in CFA. […] At the termination of the experiment, mice were sacrificed, and the brains harvested, fixed, sections histologically scored by a blinded examiner for the number of inflammatory foci in the meninges and parenchyma using an established “Inflammatory Foci Score” (Chang et al, Recovery from EAE is associated with decreased survival of encephalitogenic T cells in the CNS of B7-1/B7-2-deficient mice. European J. Immunology, 2003, 33(7):2022-32).

[5] = tested on: collagen-induced arthritis (CIA) in DBA/1 mice; test: Collagen-induced arthritis (CIA) mouse model for RA, treatment from first immunization; format: in vivo; conditions: 50 mg/kg/day oral gavage, 100 mg/kg/day loading day 14-21; vs vehicle, Mann Whitney U test P<0.05
[6] = tested on: established high-fat diet-induced NASH in C57BL/6 mice; test: High fat diet-induced NASH in mice, treatment of established disease; format: in vivo, mouse; conditions: 6 weeks; for steatosis percentage of whole area (liver histology): 10 mg/kg/day started after 2 weeks of high-fat diet; for steatosis percentage of whole area (liver histology) / serum ALT / serum AST: vs vehicle
Method: To evaluate the effect of DHCQ and HCQ on established NASH, C57BL/6 mice (8 per group) were fed a high-fat “western-style” diet (60% caloric content from fat; Taconic). Following initiation of the high-fat diet, after 2 weeks blood was drawn and analyzed for abnormal elevations in serum markers for NASH including AST and ALT. The AST and ALT became abnormally elevated following the initial 2 weeks of high-fat diet, and at that time treatment was initiated with HCQ (10 mg/kg/day), DHCQ (10 mg/kg/day), or vehicle control. After 6 weeks of treatment, mice were fasted and blood was collected for serum analysis and mice sacrificed for histologic analysis of liver pathology. FIG. 8A presents micrographs of representative liver tissue sections at both 10× and 20× magnification. […] AST and ALT levels in the collected serum were measured and 2-tailed T Tests used to compare levels between groups.

human OA = conditions: cited from earlier work
retinal toxicity [7] = conditions: cited from earlier work

| Compound | total cholesterol [1] | triglycerides [1] | blood glucose [1] | EAE clinical score (development and severity) [3] | EAE clinical score (severity of established EAE) [4] | Inflammatory Foci Score in the parenchyma [4] | Inflammatory Foci Score, total score [4] | Inflammatory Foci Score in the meninges [4] | arthritis score (development of disease and disease activity) [5] | steatosis percentage of whole area (liver histology) [6] | serum ALT ([6]; 10 mg/kg/day) | serum AST ([6]; 10 mg/kg/day) | other results |
| --- | --- | --- | --- | --- | --- | --- | --- | --- | --- | --- | --- | --- | --- |
| CC(CCCNCCO)Nc1ccnc2cc(Cl)ccc12 (stereo not shown) [DHCQ, desethylhydroxychloroquine] | statistical reductions in total cholesterol | statistical reductions | statistical reduction in blood glucose levels | prevented development of and reduced the severity of EAE | reducing the severity of EAE | statistically reduced | statistically reduced | statistically reduced | statistically reduced development of disease and reduced disease activity; also recorded: statistically lower | statistically reduced the steatosis percentage | statistically reduced abnormal elevations | statistically reduced abnormal elevations | treatment of diet-induced metabolic disease compared to HCQ, DCQ and BDCQ [1]: statistically more effectively than HCQ, DCQ and BDCQ; estimated retinal toxicity rate in treated individuals after 5 years (retinal toxicity [2]; population where HCQ rate approaches 1% after 5 years): < 0.5%; estimated rate of retinal toxicity, as share of the reported rate for HCQ (retinal toxicity [2]; similar effective cumulative dose and time period): less than 50%; EAE disease activity compared to HCQ treatment ([3]; at several timepoints, P<0.05 Mann Whitney U test): statistically superior activity; therapeutic activity in established EAE compared to HCQ ([4]; mouse, in vivo): more robust therapeutic activity than treatment with HCQ; AST and ALT compared to treatment with HCQ ([6]; 10 mg/kg/day): statistical reductions in the AST and ALT as compared to treatment with HCQ |
| CCN(CCO)CCCC(C)Nc1ccnc2cc(Cl)ccc12 (stereo not shown) [HCQ, hydroxychloroquine] | did not result in statistical reductions | did not result in statistical reductions | did not result in statistical reductions in blood glucose | prevented development of and reduced the severity of EAE | reducing the severity of EAE | trends towards reductions | trends towards reductions | reduced | statistically reduced development of disease and reduced disease activity; also recorded: statistically lower | statistically reduced the steatosis percentage | only exhibited a trend towards reduction | only exhibited a trend towards reduction | therapeutic benefit in erosive OA (human OA; case series): trends towards therapeutic benefit; disease-modifying or pain-reducing activity in non-erosive OA (human OA; in vivo): has not demonstrated disease-modifying or pain-reducing activity; prevalence of retinal toxicity (retinal toxicity [7]; conventional doses, 400 mg/day common): 6.8 users per 1,000; retinal toxicity after 5-7 years of use (retinal toxicity [7]; in vivo): ~1%; risk of retinal toxicity after 7 years of usage or 1000 grams of total exposure (retinal toxicity [7]; in vivo): 5 times higher; risk of retinal toxicity after about 7 years of treatment (retinal toxicity [7]; in vivo): approximately 1%; incidence of retinal toxicity after 5 years (retinal toxicity [7]; treated humans, conventional doses): approximately 1% |

Source: patent publication US9931335B2, “Desethylhydroxychloroquine for the treatment of diseases associated with inflammation” (The Board of Trustees of the Leland Stanford Junior …, priority 2013, dated 2018)
